Source: patent US20220323454A1, “PHENOTHIAZINES AND THEIR DERIVATIVES FOR USE AS A MEDICAMENT” (Guangzhou Virotech Pharmaceutical Co., Ltd., priority 2019, published 2022)

Experiments:
[1] = tested on: B16-WT cells; experiment: Killing of B16-WT melanoma cells, with or without CTL cells; type: cell-based, mouse; conditions: FIG. 4E
Description: (§1) (4) The B16-OVA group received no treatment, and the medium was replaced with water in the Water group. The other groups were treated with 10 μg/mL IFNγ. After 24 hours, except for the B16-OVA group, each group was co-cultured with CTL cells at a ratio of 1:5 for 4 hours, and treated with MTC […], LMT (1 μM) or anti-PD1 (PD-1 antibody, 10 μg/mL, Nivolumab, BMS). The death of B16-OVA in each group was observed by microscope, and then the killing ability of CTL cells to target cells was assessed. […] The IFN-γ+MTC group and the IFN-γ+LMT group were treated with 10 μg/mL IFN-γ for 24 hours. The cells were then mixed with CTL cells at a ratio of 1:5, co-cultured for 4 hours and treated with MTC (1 μM) or LMT (1 μM). The MTC and LMT groups were treated with MTC (10 μM) or LMT (10 μM) only. The killing ability against target cells was observed.

[2] = tested on: B16-OVA cells; experiment: CTL killing of IFN-γ-treated B16-OVA melanoma cells (microscope); type: cell-based, mouse
Description: (3) Melanoma cells B16-OVA (B16 cells expressing OVA gene) were treated with 10 μg/mL IFN-γ for 24 hours, and then mixed with CTL cells at a ratio of 1:5 and co-cultured for 4 hours. Cells were treated with 1 μM MTC. B16-OVA cells treated with DMSO or MTC only (without IFN-γ treatment) were used as control. The apoptosis of B16-OVA was observed by microscope, and then the killing ability of CTL cells to target cells was assessed.
as §1

[3] = tested on: Jurkat-PD-1-NFAT-LUC cells; experiment: NFAT-luciferase activity in Jurkat-PD-1-NFAT-LUC cells co-cultured with Raji-PD-L1 cells; type: cell-based, human; conditions: 4.86 μM MTC or LMT added with Raji-PD-L1 cells, 6 h co-culture; FIG. 1E
Description: (§2) (1) Jurkat cells were used to construct a stable cell line expressing PD-1. The pCAGin-PD-1 plasmid was electroporated into Jurkat cells, which were then screened with 900 μg/mL G418 antibiotic and flow-sorted for single clones. Jurkat-PD-1 cells were then electroporated into a DNA fragment that controls the luciferase gene through the NFAT-binding site (referred to as NFAT-LUC). A single clone was then flow-sorted and named clone 5. Using this cell, the expression level of IL-2 can be measured by the activity of luciferase. Raji cells stably expressing PD-L1 were constructed, and the pCDNA-PD-L1 plasmid was electroporated into the Raji cells, followed by screening with 2 μg/mL puromycin, and then flow-sorted single clones and named clone 1.
(4) A 96-well plate was coated with 10 μg/mL CD3 antibody/10 μg/mL CD28 antibody overnight at 4° C., and excess antibody then washed off with PBS. Raji cells or Raji-PD-L1 cells were co-cultured with Jurkat-PD-1-NFAT-LUC cells at a ratio of 1:1, or to a mixture of Raji-PD-L1 cells and Jurkat-PD-1-NFAT-LUC cells at a ratio of 1:1 was added 4.86 μM MTC or LMT. Luciferase substrate was added after 6h co-culture and the luciferase activity was measured by a microplate reader.

[4] = tested on: EL4-OVA-mPDL1 cells; experiment: EL4-OVA-mPDL1 subcutaneous transplanted tumor in Rag1−/− mice given CTL cells; type: in vivo, mouse; conditions: CTL cells by tail vein, MTC 40 mg/kg/day intragastric, PD-1 antibody 10 mg/kg/2 days intraperitoneal, vs CTL cell-only group, FIGS. 5B, C, D
Description: (1) Lymphoma cells overexpressing chicken ovalbumin OVA and mouse PD-L1, namely EL4-OVA-mPDL1 cells, were resuspended in BD Matrigel, in which, for one side of one mouse, 2×10^6 cells were resuspended in 100 μl BD Matrigel.
(2) The mixture of cells and Matrigel was inoculated into the left and right flanks of Rag1−/− mice subcutaneously, each at a dosage of 100 μl.
(3) When the tumor was fixed about 5 days after inoculation, activated OT-1 T cells (i.e., 2×10^6 CTL cells/mouse) were injected through the tail vein, and the mice were divided into 3 groups, namely the CTL cell group, the CTL cell +10 mg/kg/2 days PD-1 antibody group, and the CTL cell +40 mg/kg/day MTC group.
(4) The length and width of the transplanted tumor of each group of mice were measured from the day of tail vein injection of CTL cells, and every other day, and the tumor volume was calculated as length×width^2/2 (FIG. 5A).

[5] = tested on: Jurkat-PD-1-NFAT-LUC cells; experiment: IL-2 secretion by Jurkat-PD-1-NFAT-LUC cells co-cultured with Raji-PD-L1 cells (ELISA); type: cell-based, human; conditions: Raji-PD-L1 : Jurkat-PD-1-NFAT-LUC 1:1, CD3/CD28 antibody coated plate, 6 hours; 1 μM MTC or 10 μg/mL PD1 antibody; FIG. 1D
Description: as §2
(3) A 96-well plate was coated with 10 μg/mL CD3 antibody/10 μg/mL CD28 antibody overnight at 4° C. and excess antibody was washed off with PBS. Raji cells or Raji-PD-L1 cells were co-cultured with Jurkat-PD-1-NFAT-LUC cells at a ratio of 1:1, or to a mixture of Raji-PD-L1 cells and Jurkat-PD-1-NFAT-LUC cells at a ratio of 1:1 was added 1 μM MTC or 10 μg/mL PD1 antibody for co-culture; after 6 hours of co-culture, the secretion of IL-2 in the supernatant was measured by ELISA.

Row | Compound | killing effect on B16-WT cells, combination with CTL cells ([1]; IFN-γ 10 μg/mL 24 hours, B16-WT : CTL 1:5, 4 hours, MTC (1 μM) or LMT (1 μM)) | killing effect on B16-WT cells, compound only ([1]; MTC (10 μM) or LMT (10 μM) only) | killing effects of CTL cells to B16-OVA cells ([2]; B16-OVA treated with 10 μg/mL IFNγ 24 hours, B16-OVA : CTL 1:5, 4 hours, MTC (1 µM), LMT (1 μM), FIGS. 4C and 4D) | combined killing effect with CTL cells on B16-OVA compared with the anti-PD-1 group ([2]; MTC (1 µM) or LMT (1 μM) vs anti-PD1 10 μg/mL, FIG. 4D) | luciferase activity [3] | tumor growth (tumor volume and tumor weight) [4] | secretion of IL-2 in the supernatant [5]
1 | CN(C)c1ccc2c(c1)Sc1cc(N(C)C)ccc1N2 [LMT, N3,N3,N7,N7-tetramethyl-10H-phenothiazine-3,7-diammonium dimesylate] | no killing effect | no killing effect | significantly enhanced | significantly stronger than that of the anti-PD-1 group | increased dramatically | – | –
2 | PD-1 antibody: anti-PD-1 antibody (Nivolumab, Bristol-Myers Squibb) used as comparator | – | – | – | – | – | inhibited | sharply enhanced
